# Data taken from PMC5218480 (PLoS ONE, 2017).
# System: MV-4-11 cells
# Test: Gene expression microarray analysis (Affymetrix PrimeView) and GSEA
# Assay type: cell-based, human
# Set-up: RFU PODN (11730768_x_at) / Fold change /veh PODN (11730768_x_at) / RFU LINC00158 (11744669_a_at) / Fold change /veh LINC00158 (11744669_a_at) / RFU DUSP10 (11751237_a_at) / Fold change /veh DUSP10 (11751237_a_at) / RFU ID3 (11757404_x_at) / Fold change /veh ID3 (11757404_x_at) / RFU PLEKHG5 (11737974_s_at) / Fold change /veh PLEKHG5 (11737974_s_at) / RFU LRRC4B (11730491_at) / Fold change /veh LRRC4B (11730491_at) / RFU GIMAP4 (11747438_a_at) / Fold change /veh GIMAP4 (11747438_a_at) / RFU KRT8 (11758183_x_at) / Fold change /veh KRT8 (11758183_x_at) / RFU CNN1 (11734310_a_at) / Fold change /veh CNN1 (11734310_a_at) / RFU VPS37D (11726825_at) / Fold change /veh VPS37D (11726825_at) / RFU C10orf10 (11716522_x_at) / Fold change /veh C10orf10 (11716522_x_at) / RFU KIR2DL2 /// KIR2DL4 /// KIR2DL5A /// KIR2DL5B /// KIR2DS1 /// KIR2DS2 /// KIR2DS3 /// KIR2DS4 /// KIR3DL3 /// KIR3DL3 /// KIR3DS1 (11738374_at) / Fold change /veh KIR2DL2 /// KIR2DL4 /// KIR2DL5A /// KIR2DL5B /// KIR2DS1 /// KIR2DS2 /// KIR2DS3 /// KIR2DS4 /// KIR3DL3 /// KIR3DL3 /// KIR3DS1 (11738374_at) / RFU C1QL1 (11718748_at) / Fold change /veh C1QL1 (11718748_at) / RFU TMPRSS4 (11747572_a_at) / Fold change /veh TMPRSS4 (11747572_a_at) / RFU HAMP (11756126_x_at) / Fold change /veh HAMP (11756126_x_at) / RFU RNFT2 (11725882_a_at) / Fold change /veh RNFT2 (11725882_a_at) / RFU NR4A2 (11747474_a_at) / Fold change /veh NR4A2 (11747474_a_at) / RFU ABCC12 (11746883_a_at) / Fold change /veh ABCC12 (11746883_a_at) / RFU TMEM136 (11760407_x_at) / Fold change /veh TMEM136 (11760407_x_at) / RFU CLDN22 /// WWC2 (11732394_at) / Fold change /veh CLDN22 /// WWC2 (11732394_at) / RFU HLA-DPB1 (11760878_x_at) / Fold change /veh HLA-DPB1 (11760878_x_at) / RFU SPINT1 (11716480_a_at) / Fold change /veh SPINT1 (11716480_a_at) / RFU GAP43 (11754022_s_at) / Fold change /veh GAP43 (11754022_s_at) / RFU A4GNT (11735810_at) / Fold change /veh A4GNT (11735810_at) / RFU PRB3 (11715151_x_at) / Fold change /veh PRB3 (11715151_x_at) / RFU TUBB4B (11761932_at) / Fold change /veh TUBB4B (11761932_at) / RFU CAPN14 (11732068_a_at) / Fold change /veh CAPN14 (11732068_a_at) / RFU TMCC2 (11721928_a_at) / Fold change /veh TMCC2 (11721928_a_at) / RFU IRGQ (11745062_a_at) / Fold change /veh IRGQ (11745062_a_at) / RFU FAM174B (11720279_a_at) / Fold change /veh FAM174B (11720279_a_at) / RFU TMPRSS4 (11748680_a_at) / Fold change /veh TMPRSS4 (11748680_a_at) / RFU FAM212B (11763350_a_at) / Fold change /veh FAM212B (11763350_a_at) / RFU PLEKHG5 (11743358_a_at) / Fold change /veh PLEKHG5 (11743358_a_at) / RFU ZSCAN30 (11745921_a_at) / Fold change /veh ZSCAN30 (11745921_a_at) / RFU CMKLR1 (11741424_a_at) / Fold change /veh CMKLR1 (11741424_a_at) / RFU LOC101060620 /// MAPK8IP1 (11723275_at) / Fold change /veh LOC101060620 /// MAPK8IP1 (11723275_at) / RFU SPTSSB (11747773_x_at) / Fold change /veh SPTSSB (11747773_x_at) / RFU PRSS12 (11739890_at) / Fold change /veh PRSS12 (11739890_at) / RFU BIN1 (11741810_x_at) / Fold change /veh BIN1 (11741810_x_at) / RFU WNT11 (11732464_a_at) / Fold change /veh WNT11 (11732464_a_at) / RFU C10orf10 (11716521_a_at) / Fold change /veh C10orf10 (11716521_a_at) / RFU C5orf56 (11738089_at) / Fold change /veh C5orf56 (11738089_at) / RFU CYB561 (11721691_x_at) / Fold change /veh CYB561 (11721691_x_at) / RFU ANKRD19P (11752326_a_at) / Fold change /veh ANKRD19P (11752326_a_at) / RFU OR2T12 /// OR2T33 /// OR2T8 (11738714_s_at) / Fold change /veh OR2T12 /// OR2T33 /// OR2T8 (11738714_s_at) / RFU VCAN (11748164_a_at) / Fold change /veh VCAN (11748164_a_at) / RFU JSRP1 (11732532_at) / Fold change /veh JSRP1 (11732532_at) / RFU KRTAP10-11 (11738290_x_at) / Fold change /veh KRTAP10-11 (11738290_x_at) / RFU MYO3A (11730013_a_at) / Fold change /veh MYO3A (11730013_a_at) / RFU EBF3 (11725865_a_at) / Fold change /veh EBF3 (11725865_a_at) / RFU CAMK2N1 (11719241_x_at) / Fold change /veh CAMK2N1 (11719241_x_at) / RFU C5orf56 (11738088_a_at) / Fold change /veh C5orf56 (11738088_a_at) / RFU OLFML3 (11715873_a_at) / Fold change /veh OLFML3 (11715873_a_at) / RFU LOC100653217 /// NTM (11731650_a_at) / Fold change /veh LOC100653217 /// NTM (11731650_a_at) / RFU MAPK11 (11762145_a_at) / Fold change /veh MAPK11 (11762145_a_at) / RFU FIZ1 (11724087_x_at) / Fold change /veh FIZ1 (11724087_x_at) / RFU OASL (11726364_x_at) / Fold change /veh OASL (11726364_x_at) / RFU SOX15 (11748057_x_at) / Fold change /veh SOX15 (11748057_x_at) / RFU CD79A (11719716_a_at) / Fold change /veh CD79A (11719716_a_at) / RFU HIST1H1D (11736915_at) / Fold change /veh HIST1H1D (11736915_at) / RFU CASKIN2 (11723855_a_at) / Fold change /veh CASKIN2 (11723855_a_at) / RFU LOC730098 (11760151_x_at) / Fold change /veh LOC730098 (11760151_x_at) / RFU OR4N2 (11742367_at) / Fold change /veh OR4N2 (11742367_at) / RFU PRRT2 (11749266_a_at) / Fold change /veh PRRT2 (11749266_a_at) / RFU SNX32 (11753110_a_at) / Fold change /veh SNX32 (11753110_a_at) / RFU CDHR5 (11726645_a_at) / Fold change /veh CDHR5 (11726645_a_at) / RFU RCAN1 (11760418_a_at) / Fold change /veh RCAN1 (11760418_a_at) / RFU FAM167A (11723789_a_at) / Fold change /veh FAM167A (11723789_a_at) / RFU FAM26E (11764081_at) / Fold change /veh FAM26E (11764081_at) / RFU ISYNA1 (11749810_s_at) / Fold change /veh ISYNA1 (11749810_s_at) / RFU ACY1 (11761880_at) / Fold change /veh ACY1 (11761880_at) / RFU 11764098_at / Fold change /veh 11764098_at / RFU SAMD14 (11745864_x_at) / Fold change /veh SAMD14 (11745864_x_at) / RFU NPB (11741838_a_at) / Fold change /veh NPB (11741838_a_at) / RFU TMPRSS6 (11731388_a_at) / Fold change /veh TMPRSS6 (11731388_a_at) / RFU KRTAP10-2 (11738614_at) / Fold change /veh KRTAP10-2 (11738614_at) / RFU ARHGAP8 /// PRR5-ARHGAP8 (11727945_x_at) / Fold change /veh ARHGAP8 /// PRR5-ARHGAP8 (11727945_x_at) / RFU KRTAP5-7 /// NADSYN1 (11734609_at) / Fold change /veh KRTAP5-7 /// NADSYN1 (11734609_at) / RFU RASL12 (11751679_a_at) / Fold change /veh RASL12 (11751679_a_at) / RFU CDKN2B (11736163_a_at) / Fold change /veh CDKN2B (11736163_a_at) / RFU PRF1 (11729649_at) / Fold change /veh PRF1 (11729649_at) / RFU, ZNF638 /// ZNF638-IT1 / Fold change vs veh, ZNF638 /// ZNF638-IT1 / RFU, PANK3 / Fold change vs veh, PANK3 / RFU, SH3YL1 / Fold change vs veh, SH3YL1 / RFU, ZEB2 / Fold change vs veh, ZEB2 / RFU, NRIP1 / Fold change vs veh, NRIP1 / RFU, PTTG1IP / Fold change vs veh, PTTG1IP / RFU, CAPN2 / Fold change vs veh, CAPN2 / RFU, MED14 / Fold change vs veh, MED14 / RFU, SNORA58 / Fold change vs veh, SNORA58 / RFU, C1orf63 / Fold change vs veh, C1orf63 / RFU, LRRFIP1 / Fold change vs veh, LRRFIP1 / RFU, NDUFAF7 / Fold change vs veh, NDUFAF7 / RFU, SLC12A2 / Fold change vs veh, SLC12A2 / RFU, IBTK / Fold change vs veh, IBTK / RFU, ESF1 / Fold change vs veh, ESF1 / Fold change vs veh, TMEM50B / RFU, TAOK1 / Fold change vs veh, TAOK1 / RFU, ACBD3 / Fold change vs veh, ACBD3 / RFU, TMA16 / Fold change vs veh, TMA16 / RFU, RWDD3 / Fold change vs veh, RWDD3 / RFU, BCAT1 / Fold change vs veh, BCAT1 / RFU, EDEM3 / Fold change vs veh, EDEM3 / RFU, TMEM33 / Fold change vs veh, TMEM33 / RFU, WDR75 / Fold change vs veh, WDR75 / RFU, AHCTF1 / Fold change vs veh, AHCTF1 / RFU, TFRC / Fold change vs veh, TFRC / RFU, ZDHHC17 / Fold change vs veh, ZDHHC17 / RFU, NOM1 / Fold change vs veh, NOM1 / RFU, ARL8B / Fold change vs veh, ARL8B / RFU, ZBTB11 / Fold change vs veh, ZBTB11 / RFU, TAMM41 / Fold change vs veh, TAMM41 / RFU, KIAA1704 /// LOC100996395 / Fold change vs veh, KIAA1704 /// LOC100996395 / RFU, ING1 / Fold change vs veh, ING1 / RFU, TRMT61B / Fold change vs veh, TRMT61B / RFU, FUBP3 / Fold change vs veh, FUBP3 / RFU, TP53 / Fold change vs veh, TP53 / RFU, TNKS2 / Fold change vs veh, TNKS2 / RFU, ZFP14 / Fold change vs veh, ZFP14 / RFU, ACTR2 / Fold change vs veh, ACTR2 / RFU, PPP3R1 / Fold change vs veh, PPP3R1 / RFU, PIK3R1 / Fold change vs veh, PIK3R1 / RFU, HNRNPA1 / Fold change vs veh, HNRNPA1 / RFU, RNF170 / Fold change vs veh, RNF170 / RFU, ZNF28 / Fold change vs veh, ZNF28 / RFU, RNGTT / Fold change vs veh, RNGTT / RFU, OGT / Fold change vs veh, OGT / RFU, BRD1 / Fold change vs veh, BRD1 / RFU, MARS / Fold change vs veh, MARS / RFU, ZNF655 / Fold change vs veh, ZNF655 / RFU, FAHD1 / Fold change vs veh, FAHD1 / RFU, BDP1 / Fold change vs veh, BDP1 / RFU, LRRCC1 / Fold change vs veh, LRRCC1 / RFU, ARID1A / Fold change vs veh, ARID1A / RFU, ZNF146 / Fold change vs veh, ZNF146 / RFU, ZNF330 / Fold change vs veh, ZNF330 / RFU, GPN3 / Fold change vs veh, GPN3 / RFU, C9orf123 / Fold change vs veh, C9orf123 / RFU, N4BP2L2 / Fold change vs veh, N4BP2L2 / RFU, ARFIP1 / Fold change vs veh, ARFIP1 / RFU, FAM179B / Fold change vs veh, FAM179B / RFU, BCL10 / Fold change vs veh, BCL10 / RFU, UHRF1BP1L / Fold change vs veh, UHRF1BP1L / RFU, BET1 / Fold change vs veh, BET1 / RFU, CNOT2 / Fold change vs veh, CNOT2 / RFU, ZNF268 / Fold change vs veh, ZNF268 / Fold change vs veh, ZNF507 / RFU, DGCR2 / Fold change vs veh, DGCR2 / RFU, WDSUB1 / Fold change vs veh, WDSUB1 / Fold change vs veh, HSP90B1 /// MIR3652 / RFU, ADSS / Fold change vs veh, ADSS / RFU, GK / Fold change vs veh, GK / RFU, ZNF148 / Fold change vs veh, ZNF148 / RFU, TAF9 / Fold change vs veh, TAF9 / RFU, SLC1A5 / Fold change vs veh, SLC1A5 / RFU, SLMO2 / Fold change vs veh, SLMO2 / RFU, ABCC4 / Fold change vs veh, ABCC4 / RFU, LOC101060439 /// RAP1B / Fold change vs veh, LOC101060439 /// RAP1B / RFU, RFX7 / Fold change vs veh, RFX7 / RFU, GTPBP10 / Fold change vs veh, GTPBP10 / RFU, CNEP1R1 / Fold change vs veh, CNEP1R1 / RFU, BIVM-ERCC5 /// ERCC5 / Fold change vs veh, BIVM-ERCC5 /// ERCC5 / RFU, ILF3 / Fold change vs veh, ILF3 / RFU 11762660_at / Fold change /veh 11762660_at / RFU VCAN (11757783_s_at) / Fold change /veh VCAN (11757783_s_at) / RFU DDX43 (11728927_at) / Fold change /veh DDX43 (11728927_at) / RFU KRT8 (11758188_x_at) / Fold change /veh KRT8 (11758188_x_at) / RFU NKD1 (11759106_at) / Fold change /veh NKD1 (11759106_at) / RFU SRD5A1 (11742802_a_at) / Fold change /veh SRD5A1 (11742802_a_at) / RFU TPSAB1 /// TPSB2 (11721975_s_at) / Fold change /veh TPSAB1 /// TPSB2 (11721975_s_at) / RFU GSTM3 (11746129_a_at) / Fold change /veh GSTM3 (11746129_a_at) / RFU IL23R (11737362_x_at) / Fold change /veh IL23R (11737362_x_at) / RFU TMEM51 (11727254_a_at) / Fold change /veh TMEM51 (11727254_a_at) / RFU PIWIL2 (11732686_x_at) / Fold change /veh PIWIL2 (11732686_x_at) / RFU ORM1 (11744905_x_at) / Fold change /veh ORM1 (11744905_x_at) / RFU CCDC152 (11743942_at) / Fold change /veh CCDC152 (11743942_at) / RFU ECM1 (11717891_a_at) / Fold change /veh ECM1 (11717891_a_at) / RFU IL23R (11748794_a_at) / Fold change /veh IL23R (11748794_a_at) / RFU TNFAIP8L3 (11732012_x_at) / Fold change /veh TNFAIP8L3 (11732012_x_at) / RFU MBOAT4 (11741988_at) / Fold change /veh MBOAT4 (11741988_at) / RFU 11764193_at / Fold change /veh 11764193_at / RFU TMEM53 (11763286_at) / Fold change /veh TMEM53 (11763286_at) / RFU MAGEB2 (11727129_at) / Fold change /veh MAGEB2 (11727129_at) / RFU TMEM200A (11744735_a_at) / Fold change /veh TMEM200A (11744735_a_at) / RFU CCDC152 (11751479_a_at) / Fold change /veh CCDC152 (11751479_a_at) / RFU FAM211A (11726209_a_at) / Fold change /veh FAM211A (11726209_a_at) / RFU RGS16 (11746705_a_at) / Fold change /veh RGS16 (11746705_a_at) / RFU VCAN (11755009_s_at) / Fold change /veh VCAN (11755009_s_at) / RFU RHOB (11743442_s_at) / Fold change /veh RHOB (11743442_s_at) / RFU RGS16 (11720943_a_at) / Fold change /veh RGS16 (11720943_a_at) / RFU RGS16 (11720944_at) / Fold change /veh RGS16 (11720944_at) / RFU, VPS4B / Fold change vs veh, VPS4B / RFU, CREB1 / Fold change vs veh, CREB1 / RFU, DNAJC13 / Fold change vs veh, DNAJC13 / RFU, GNAQ / Fold change vs veh, GNAQ / RFU, CDK5R1 / Fold change vs veh, CDK5R1 / RFU, ZRANB3 / Fold change vs veh, ZRANB3 / RFU, CUL4A / Fold change vs veh, CUL4A / RFU, CCNY / Fold change vs veh, CCNY / RFU, UFL1 / Fold change vs veh, UFL1 / RFU, COG3 / Fold change vs veh, COG3 / RFU, DIAPH2 / Fold change vs veh, DIAPH2 / RFU, SKA2 / Fold change vs veh, SKA2 / RFU, AFF3 / Fold change vs veh, AFF3 / RFU, LMF1 / Fold change vs veh, LMF1 / RFU, IPO11 / Fold change vs veh, IPO11 / RFU, DFFB / Fold change vs veh, DFFB / RFU, FOXP1 / Fold change vs veh, FOXP1 / RFU, CARD8 / Fold change vs veh, CARD8 / RFU, STRN3 / Fold change vs veh, STRN3 / RFU, ADK / Fold change vs veh, ADK / RFU, RASSF2 / Fold change vs veh, RASSF2 / RFU, WIPF1 / Fold change vs veh, WIPF1 / RFU, LARP1B / Fold change vs veh, LARP1B / RFU, RASA1 / Fold change vs veh, RASA1 / RFU, RB1 / Fold change vs veh, RB1 / RFU, PPFIA1 / Fold change vs veh, PPFIA1 / RFU, MAT2A / Fold change vs veh, MAT2A / RFU, CCT5 / Fold change vs veh, CCT5 / RFU, WDR92 / Fold change vs veh, WDR92 / RFU, CUX1 / Fold change vs veh, CUX1 / RFU, TTC7A / Fold change vs veh, TTC7A / RFU, TMEM135 / Fold change vs veh, TMEM135 / RFU, DEPTOR / Fold change vs veh, DEPTOR / RFU, CPM / Fold change vs veh, CPM / RFU, DNAJB6 / Fold change vs veh, DNAJB6 / RFU, CACNA2D3 / Fold change vs veh, CACNA2D3 / RFU, DTX4 / Fold change vs veh, DTX4 / RFU, TFCP2 / Fold change vs veh, TFCP2 / RFU, GMCL1 /// GMCL1P1 / Fold change vs veh, GMCL1 /// GMCL1P1 / RFU, AEBP2 / Fold change vs veh, AEBP2 / RFU, SNHG1 /// SNORD22 /// SNORD25 /// SNORD26 /// SNORD27 /// SNORD28 /// SNORD29 /// SNORD31 / Fold change vs veh, SNHG1 /// SNORD22 /// SNORD25 /// SNORD26 /// SNORD27 /// SNORD28 /// SNORD29 /// SNORD31 / Fold change (Aza/veh), C12orf56 (ProbeSet 11735607_a_at) / Fold change (ACY-1035/veh), C12orf56 (ProbeSet 11735607_a_at) / Fold change (Aza/veh), FGFR1OP (ProbeSet 11751329_s_at) / Fold change (ACY-1035/veh), FGFR1OP (ProbeSet 11751329_s_at) / Fold change (Aza/veh), VPS36 (ProbeSet 11739960_a_at) / Fold change (ACY-1035/veh), VPS36 (ProbeSet 11739960_a_at) / RFU SYPL1 (11715823_x_at) / Fold change /veh SYPL1 (11715823_x_at) / RFU IGFBP7 (11715501_s_at) / Fold change /veh IGFBP7 (11715501_s_at) / RFU REEP3 (11722064_at) / Fold change /veh REEP3 (11722064_at) / RFU IGLL1 (11728026_x_at) / Fold change /veh IGLL1 (11728026_x_at): dose or concentration left out as unconfirmed
# Conditions: MV-4-11 cells, 48 hours
smiles,measurement,value
Nc1ccc(-c2cccs2)cc1NC(=O)c1ccc2c(c1)cc(C1CC1)n2CCN1CCOCC1 [ACY-1035],RFU FAM174B (11720279_a_at),24.40 RFU
